The values that follow are results of earlier work, collected in patent US6077934A (priority 1998, dated 2000).

The subject of this data set is Swiss Webster mice. To be noted: mouse, in vivo.

In the case of GCX1 X2 EPWC [contryphan-R], the “symptomatology after intracranial injection” value was “"stiff-tail syndrome"”.
